The text below walks through data of patent US20230167073A1 (Teijin Pharma Limited, priority 2020, published 2023).

Some results are limits rather than exact numbers.

The experiment addresses T1, Human TRPC6 (Homo sapiens, UniProt Q9Y210).
T1 construct: expressed in transfected cells
T1 sequence (Q9Y210 1-931): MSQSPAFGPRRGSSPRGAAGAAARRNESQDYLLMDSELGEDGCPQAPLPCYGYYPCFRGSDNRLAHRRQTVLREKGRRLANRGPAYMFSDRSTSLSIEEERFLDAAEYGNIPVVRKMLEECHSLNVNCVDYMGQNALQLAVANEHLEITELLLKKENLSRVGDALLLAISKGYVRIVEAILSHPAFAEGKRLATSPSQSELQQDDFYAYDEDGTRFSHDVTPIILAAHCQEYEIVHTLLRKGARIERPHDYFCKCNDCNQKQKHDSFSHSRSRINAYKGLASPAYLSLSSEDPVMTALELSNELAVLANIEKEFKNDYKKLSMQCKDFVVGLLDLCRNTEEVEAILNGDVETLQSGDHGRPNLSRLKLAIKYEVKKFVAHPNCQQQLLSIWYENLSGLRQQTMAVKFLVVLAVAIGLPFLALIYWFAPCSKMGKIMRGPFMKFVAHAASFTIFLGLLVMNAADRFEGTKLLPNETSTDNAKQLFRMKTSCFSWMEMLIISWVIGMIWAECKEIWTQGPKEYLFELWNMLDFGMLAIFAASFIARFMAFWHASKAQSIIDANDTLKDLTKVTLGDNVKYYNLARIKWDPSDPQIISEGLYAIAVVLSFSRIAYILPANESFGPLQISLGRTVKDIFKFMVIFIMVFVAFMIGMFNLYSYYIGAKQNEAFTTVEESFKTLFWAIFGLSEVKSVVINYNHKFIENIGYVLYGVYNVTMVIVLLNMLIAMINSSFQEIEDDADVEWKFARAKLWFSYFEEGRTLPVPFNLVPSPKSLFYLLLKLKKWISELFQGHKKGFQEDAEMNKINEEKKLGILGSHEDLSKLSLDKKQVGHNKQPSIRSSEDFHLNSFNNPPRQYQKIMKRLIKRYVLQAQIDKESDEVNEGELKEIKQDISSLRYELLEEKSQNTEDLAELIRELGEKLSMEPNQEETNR
The experiment can be described thus: Evaluation of TRPC6 channel inhibitory activity (1), FLIPR Calcium 5 Assay Kit, OAG stimulation (Compound Nos. 1-1293). The format is cell-based. The conditions noted are these: Human TRPC6 stably-expressing cells, OAG 30 μM, FLIPR Calcium 5 Assay Kit; read-out: Inhibitory activity (pIC50 class) (converted). The method, boiled down:
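Cells stably expressing human TRPC6, plated 24 h before, were loaded 30 min with Calcium 5 dye plus probenecid in HEPES-HBSS. Compound was added 20 min before OAG (30 μM final) and fluorescence tracked on FLIPR. Inhibition normalised to no-compound and no-compound/no-OAG wells; pIC50 from four-parameter fit, reported as +/++/+++ categories.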
On to `Cc1nc(N2CCOCC2)ccc1Oc1cc(C#N)ccc1-c1ncc(CN)cn1` [compound 922, 4-[5-(aminomethyl)pyrimidin-2-yl]-3-(2-methyl-6-morpholin-4-ylpyridin-3-yl)oxybenzonitrile], for which the IC50 is more than 1000 nM.

Regarding `Cn1nc(-c2ccccc2)cc1Oc1nc(C#N)ccc1-c1ccc(CCN)cn1` [Compound No. 1279, 5-[5-(2-Aminoethyl)pyridin-2-yl]-6-(2-methyl-5-phenylpyrazol-3-yl)oxypyridine-2-carbonitrile], the IC50 was less than 10 nM.

For the compound `Cc1cc(Oc2cc(C#N)ccc2-c2cc(CN)cn3cnnc23)cc(N2CCOCC2)n1` [compound 733, 4-[6-(aminomethyl)-[1,2,4]triazolo[4,3-a]pyridin-8-yl]-3-(2-methyl-6-morpholin-4-ylpyridin-4-yl)oxybenzonitrile], the IC50 is more than 1000 nM.

Turning to `COCCN(C)c1cc(Oc2cc(C#N)ccc2-c2ncc(CN)cn2)n(C)n1` [compound 798, 4-[5-(aminomethyl)pyrimidin-2-yl]-3-[5-[2-methoxyethyl(methyl)amino]-2-methylpyrazol-3-yl]oxybenzonitrile], the IC50 was 10 to 1000 nM.

As for `N#Cc1ccc(-c2ncc(CCN)cn2)c(C(=O)c2cnn(-c3ccccn3)c2)c1` [compound 1037, 4-[5-(2-aminoethyl)pyrimidin-2-yl]-3-(1-pyridin-2-ylpyrazole-4-carbonyl)benzonitrile], the IC50 is less than 10 nM.

With `CN(C)c1cc(C(=O)c2cc(C#N)ccc2-c2ncc(CCN)cn2)n(C)n1` [compound 1043, 4-[5-(2-aminoethyl)pyrimidin-2-yl]-3-[5-(dimethylamino)-2-methylpyrazole-3-carbonyl]benzonitrile], the IC50 was less than 10 nM.

Take `Cn1nc(-c2ccccc2)cc1Oc1cc(C#N)ccc1-c1ccc(CCCN)cc1` [compound 579, 4-[4-(3-aminopropyl)phenyl]-3-(2-methyl-5-phenylpyrazol-3-yl)oxybenzonitrile]: the IC50 was 10 to 1000 nM.

As to `Cn1nc(C2CC2)cc1Oc1cc(C#N)ccc1-c1ccc(C(N)C#N)cn1` (stereo not drawn) [compound 422, 4-[5-[amino(cyano)methyl]pyridin-2-yl]-3-(5-cyclopropyl-2-methylpyrazol-3-yl)oxybenzonitrile], the IC50 is 10 to 1000 nM.

For `Cn1nc(-c2ccccn2)cc1Cc1cc(C#N)ccc1-c1ccc(CCN)cn1` [compound 1215, 4-[5-(2-aminoethyl)pyridin-2-yl]-3-[(2-methyl-5-pyridin-2-ylpyrazol-3-yl)methyl]benzonitrile], the IC50 was less than 10 nM.

On to `Cn1nc(-c2ccccc2)cc1Oc1cc(C#N)ccc1-c1cnc(CCN)cn1` [compound 313, 4-[5-(2-aminoethyl)pyrazin-2-yl]-3-(2-methyl-5-phenylpyrazol-3-yl)oxybenzonitrile], for which the IC50 is less than 10 nM.

Consider `Cc1nn(CC(C)C)cc1Oc1cc(C#N)ccc1-c1ncc(CCN)cn1` [compound 801, 4-[5-(2-aminoethyl)pyrimidin-2-yl]-3-[3-methyl-1-(2-methylpropyl)pyrazol-4-yl]oxybenzonitrile], for which the IC50 was less than 10 nM.

Turning to `Cn1nc(C2CCCC2)cc1Oc1cc(C#N)ccc1-c1ccc([C@H](O)CN)cn1` [compound 392, 4-[5-[(1S)-2-amino-1-hydroxyethyl]pyridin-2-yl]-3-(5-cyclopentyl-2-methylpyrazol-3-yl)oxybenzonitrile], the IC50 is less than 10 nM.

Take `Cn1nc(N(CCF)CCF)cc1Oc1cc(C#N)ccc1-c1ncc(CCN)cn1` [compound 823, 4-[5-(2-aminoethyl)pyrimidin-2-yl]-3-[5-[bis(2-fluoroethyl)amino]-2-methylpyrazol-3-yl]oxybenzonitrile]: the IC50 is less than 10 nM.

As to `Cc1nc(Oc2cc(C#N)ccc2-c2ccc(CCN)cc2)cc(N2CCCOCC2)n1` [Compound 31, 4-[4-(2-aminoethyl)phenyl]-3-[2-methyl-6-(1,4-oxazepan-4-yl)pyrimidin-4-yl]oxybenzonitrile], the IC50 is 10 to 1000 nM.

Consider `Cc1cc(Oc2cc(C#N)ccc2-c2ncc(OC3CNC3)cn2)cc(N2CCOCC2)n1` [compound 563, 4-[5-(azetidin-3-yloxy)pyrimidin-2-yl]-3-(2-methyl-6-morpholin-4 ylpyridin-4-yl)oxybenzonitrile], for which the IC50 is more than 1000 nM.

As for `Cn1nc(C2CC2)cc1Oc1cc(C#N)ccc1-c1ccc(C(N)C(N)=O)cn1` (stereo not drawn) [compound 504, 2-amino-2-[6-[4-cyano-2-(5-cyclopropyl-2-methylpyrazol-3-yl)oxyphenyl]pyridin-3-yl]acetamide], the IC50 was more than 1000 nM.

In the case of `Cn1nc(N2CCOCC2)cc1C(=O)c1cc(C#N)ccc1-c1ncc(CCN)cn1` [compound 1027, 4-[5-(2-aminoethyl)pyrimidin-2-yl]-3-(2-methyl-5-morpholin-4-ylpyrazole-3-carbonyl)benzonitrile], the IC50 is less than 10 nM.

For `Cc1nc(Oc2cc(C#N)ccc2-n2cc(C(O)CN)cn2)cc(-c2cccc(Cl)c2)n1` (stereo not drawn) [Compound 159, 4-[4-(2-amino-1-hydroxyethyl)pyrazol-1-yl]-3-[6-(3-chlorophenyl)-2-methylpyrimidin-4-yl]oxybenzonitrile], the IC50 was less than 10 nM.

On to `CN(C)CCOc1ccc(-c2ccc(C#N)cc2Oc2cc(C3CC3)nn2C)nn1` [compound 784, 3-(5-cyclopropyl-2-methylpyrazol-3-yl)oxy-4-[6-[2-(dimethylamino)ethoxy]pyridazin-3-yl]benzonitrile], for which the IC50 was more than 1000 nM.

Turning to `Cc1nc(C2CCOCC2)cn1Cc1cc(C#N)ccc1-c1ncc([C@H](O)CN)cn1` [compound 1166], the IC50 was more than 1000 nM.

As to `Cn1nc(-c2nccs2)cc1Oc1cc(C#N)ccc1-c1ncc([C@H](O)CN)cn1` [compound 574, 4-[5-[(1S)-2-amino-1-hydroxyethyl]pyrimidin-2-yl]-3-[2-methyl-5-(1,3-thiazol-2-yl)pyrazol-3-yl]oxybenzonitrile], the IC50 is 10 to 1000 nM.

Regarding `Cc1cc(Oc2cc(C#N)ccc2-c2ccc(CCN)cn2)cc(-c2ccccn2)n1` [Compound 258, 4-[5-(2-aminoethyl)pyridin-2-yl]-3-(2-methyl-6-pyridin-2-ylpyridin-4-yl)oxybenzonitrile], the IC50 is less than 10 nM.

On to `Cc1nc(Oc2cc(C#N)ccc2-n2cc([C@@H](O)CN)cn2)cc(-c2ccccc2F)n1` [compound 339, 4-[4-[(1R)-2-amino-1-hydroxyethyl]pyrazol-1-yl]-3-[6-(2-fluorophenyl)-2-methylpyrimidin-4-yl]oxybenzonitrile], for which the IC50 was 10 to 1000 nM.

For the compound `Cn1nc(C(F)(F)F)cc1Oc1cc(C#N)ccc1-c1ncc([C@H](F)CN)cn1` [compound 903, 4-[5-[(1S)-2-amino-1-fluoroethyl]pyrimidin-2-yl]-3-[2-methyl-5-(trifluoromethyl)pyrazol-3-yl]oxybenzonitrile], the IC50 is less than 10 nM.

For `Cc1nc(Oc2cc(C#N)ccc2-c2ccc(CCN)cc2)cc(-c2ccccc2C#N)n1` [Compound 21, 4-[4-(2-Aminoethyl)phenyl]-3-[6-(2-cyanophenyl)-2-methylpyrimidin-4-yl]oxybenzonitrile], the IC50 is less than 10 nM.

`Cc1nn(-c2ccccn2)c(C)c1Oc1cc(C#N)ccc1-c1ncc(CCN)cn1` [compound 941, 4-[5-(2-aminoethyl)pyrimidin-2-yl]-3-(3,5-dimethyl-1-pyridin-2-ylpyrazol-4-yl)oxybenzonitrile]: the IC50 is more than 1000 nM.

For `CC(C)n1cc(Oc2cc(F)ccc2-c2ncc(CCN)cn2)cn1` [compound 981, 2-[2-[4-fluoro-2-(1-propan-2-ylpyrazol-4-yl)oxyphenyl]pyrimidin-5-yl]ethanamine], the IC50 is 10 to 1000 nM.

For the compound `Cc1nc(Oc2cc(C#N)ccc2-c2ccc(C(O)CN)c(F)c2)cc(N2CCOCC2)n1` (stereo not drawn) [Compound 149, 4-[4-(2-Amino-1-hydroxyethyl)-3-fluorophenyl]-3-(2-methyl-6-morpholin-4-ylpyrimidin-4-yl)oxybenzonitrile], the IC50 was less than 10 nM.

On to `CCc1cc(Oc2cc(C#N)ccc2-n2cc(CC(N)C(=O)O)c3ccccc32)n(C)n1` (stereo not drawn) [compound 460, 2-amino-3-[1-[4-cyano-2-(5-ethyl-2-methylpyrazol-3-yl)oxyphenyl]indol-3-yl]propanoic acid], for which the IC50 was more than 1000 nM.

As for `Cc1sc(N2CCOCC2)nc1C(=O)c1cc(C#N)ccc1-c1ncc(CCN)cn1` [compound 1070, 4-[5-(2-aminoethyl)pyrimidin-2-yl]-3-(5-methyl-2-morpholin-4-yl-1,3-thiazole-4-carbonyl)benzonitrile], the IC50 is more than 1000 nM.
